Source: ChEMBL document CHEMBL1201862, “PubChem BioAssay data set” (2004)
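Cultured in 96-well plates, cells were exposed to test compound for 48 hours across five concentrations. The concentration for 50% growth inhibition is given as GI50.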 Active and inactive are the calls of the source. Cut-off read from the data, not from the text of the source: active = GI50 up to about 1.1 µM and inactive = higher.

Columns and labels:
Test in all cases: DTP human tumour cell line panel, 48 h
786-0 = system: 786-0
A498 = system: A498
A549 = system: A549
ACHN = system: ACHN
CCRF-CEM = system: CCRF-CEM
DMS-273 = system: DMS-273
HCT-116 = system: HCT-116
HCT-15 = system: HCT-15
HL-60 = system: HL-60
HOP-18 = system: HOP-18
HT-29 = system: HT-29
IGROV-1 = system: IGROV-1
K562 = system: K562
KM12 = system: KM12
LOX IMVI = system: LOX IMVI
LXFL 529 = system: LXFL 529
M14 = system: M14
M19-MEL = system: M19-MEL
MOLT-4 = system: MOLT-4
Malme-3M = system: Malme-3M
NCI-H226 = system: NCI-H226
NCI-H23 = system: NCI-H23
NCI-H460 = system: NCI-H460
NCI-H522 = system: NCI-H522
OVCAR-3 = system: OVCAR-3
OVCAR-4 = system: OVCAR-4
OVCAR-8 = system: OVCAR-8
RXF 393 = system: RXF 393
SF-268 = system: SF-268
SF-295 = system: SF-295
SF-539 = system: SF-539
SK-MEL-28 = system: SK-MEL-28
SK-MEL-2 = system: SK-MEL-2
SK-MEL-5 = system: SK-MEL-5
SK-OV-3 = system: SK-OV-3
SN12C = system: SN12C
SNB-19 = system: SNB-19
SNB-75 = system: SNB-75
SNB-78 = system: SNB-78
TK-10 = system: TK-10
U-251 = system: U-251
UACC-257 = system: UACC-257
UACC-62 = system: UACC-62
UO-31 = system: UO-31
XF498 = system: XF498
CAKI-1 = system: CAKI-1
COLO 205 = system: COLO 205
DLD-1 = system: DLD-1
DMS-114 = system: DMS-114
EKVX = system: EKVX
HCC 2998 = system: HCC 2998
HOP-62 = system: HOP-62
HOP-92 = system: HOP-92
KM-20L2 = system: KM-20L2
MCF7 = system: MCF7
NCI/ADR-RES = system: NCI/ADR-RES
OVCAR-5 = system: OVCAR-5
SW-620 = system: SW-620
SR = system: SR

`O=C(NN1C(=O)C(Cl)C1c1cccc(Cl)c1)c1ccccc1O` (stereo not drawn) was tested, and the GI50 (786-0) was > 100 µM (inactive), the GI50 (A498) was > 100 µM (inactive) and the GI50 (A549) was > 100 µM (inactive). The GI50 (ACHN) was > 100 µM (inactive), the GI50 (CCRF-CEM) was > 100 µM (inactive) and the GI50 (DMS-273) was > 100 µM (inactive). For the same compound, the GI50 (HCT-116) was > 100 µM (inactive), the GI50 (HCT-15) was over 100 µM and the GI50 (HL-60) was > 100 µM (inactive). The GI50 (HOP-18) was 0.167 µM (active), the GI50 (HT-29) was > 100 µM (inactive) and the GI50 (IGROV-1) was > 100 µM (inactive). For the same compound, the GI50 (K562) was > 100 µM (inactive), the GI50 (KM12) was > 100 µM (inactive) and the GI50 (LOX IMVI) was > 100 µM (inactive). The GI50 (LXFL 529) was > 100 µM (inactive), the GI50 (M14) was > 100 µM (inactive) and the GI50 (M19-MEL) was > 100 µM (inactive). The GI50 (MOLT-4) was > 100 µM (inactive), the GI50 (Malme-3M) was > 100 µM (inactive) and the GI50 (NCI-H226) was > 100 µM (inactive). For the same compound, the GI50 (NCI-H23) was > 100 µM (inactive), the GI50 (NCI-H460) was > 100 µM (inactive) and the GI50 (NCI-H522) was > 100 µM (inactive). For the same compound, the GI50 (OVCAR-3) was > 100 µM (inactive), the GI50 (OVCAR-4) was > 100 µM (inactive) and the GI50 (OVCAR-8) was > 100 µM (inactive). For the same compound, the GI50 (RXF 393) was > 100 µM (inactive), the GI50 (SF-268) was > 100 µM (inactive) and the GI50 (SF-295) was 68.4 µM (inactive). For the same compound, the GI50 (SF-539) was > 100 µM (inactive), the GI50 (SK-MEL-28) was > 100 µM (inactive) and the GI50 (SK-MEL-2) was > 100 µM (inactive). For the same compound, the GI50 (SK-MEL-5) was > 100 µM (inactive), the GI50 (SK-OV-3) was > 100 µM (inactive) and the GI50 (SN12C) was > 100 µM (inactive). The GI50 (SNB-19) was > 100 µM (inactive), the GI50 (SNB-75) was > 100 µM (inactive) and the GI50 (SNB-78) was > 100 µM (inactive). For the same compound, the GI50 (TK-10) was > 100 µM (inactive), the GI50 (U-251) was > 100 µM (inactive) and the GI50 (UACC-257) was > 100 µM (inactive). For the same compound, the GI50 (UACC-62) was > 100 µM (inactive), the GI50 (UO-31) was > 100 µM (inactive) and the GI50 (XF498) was 15.3 µM (inactive).

With `COc1ccc2c(c1)CCCc1cn[nH]c1-2` the GI50 (A498) was > 100 µM (inactive), the GI50 (A549) was > 100 µM (inactive) and the GI50 (CAKI-1) was 77.8 µM (inactive). The GI50 (CCRF-CEM) was > 72.4 µM (inactive), the GI50 (COLO 205) was > 100 µM (inactive) and the GI50 (DLD-1) was > 100 µM (inactive). The GI50 (DMS-114) was > 100 µM (inactive), the GI50 (DMS-273) was > 100 µM (inactive) and the GI50 (EKVX) was > 74.6 µM (inactive). For the same compound, the GI50 (HCC 2998) was > 100 µM (inactive), the GI50 (HCT-116) was > 100 µM (inactive) and the GI50 (HCT-15) was over 100 µM. For the same compound, the GI50 (HL-60) was > 100 µM (inactive), the GI50 (HOP-18) was > 100 µM (inactive) and the GI50 (HOP-62) was > 100 µM (inactive). For the same compound, the GI50 (HOP-92) was > 100 µM (inactive), the GI50 (HT-29) was > 100 µM (inactive) and the GI50 (K562) was > 65.8 µM (inactive). For the same compound, the GI50 (KM-20L2) was > 100 µM (inactive), the GI50 (KM12) was > 100 µM (inactive) and the GI50 (LOX IMVI) was > 100 µM (inactive). For the same compound, the GI50 (M19-MEL) was > 100 µM (inactive), the GI50 (MCF7) was > 100 µM (inactive) and the GI50 (MOLT-4) was > 100 µM (inactive). The GI50 (Malme-3M) was > 100 µM (inactive), the GI50 (NCI-H226) was > 100 µM (inactive) and the GI50 (NCI-H23) was > 100 µM (inactive). For the same compound, the GI50 (NCI-H460) was > 100 µM (inactive), the GI50 (NCI-H522) was > 100 µM (inactive) and the GI50 (NCI/ADR-RES) was > 100 µM (inactive). The GI50 (OVCAR-3) was > 100 µM (inactive), the GI50 (OVCAR-4) was > 100 µM (inactive) and the GI50 (OVCAR-5) was > 100 µM (inactive). For the same compound, the GI50 (OVCAR-8) was > 100 µM (inactive), the GI50 (RXF 393) was > 89.1 µM (inactive) and the GI50 (SF-268) was > 100 µM (inactive). For the same compound, the GI50 (SF-295) was > 100 µM (inactive), the GI50 (SF-539) was > 100 µM (inactive) and the GI50 (SK-MEL-28) was > 100 µM (inactive). The GI50 (SK-MEL-2) was > 100 µM (inactive), the GI50 (SK-MEL-5) was > 100 µM (inactive) and the GI50 (SK-OV-3) was > 100 µM (inactive). For the same compound, the GI50 (SN12C) was > 100 µM (inactive), the GI50 (SNB-19) was > 100 µM (inactive) and the GI50 (SNB-75) was > 100 µM (inactive). For the same compound, the GI50 (SNB-78) was > 100 µM (inactive), the GI50 (SW-620) was > 100 µM (inactive) and the GI50 (U-251) was > 100 µM (inactive). The GI50 (UACC-257) was > 100 µM (inactive), the GI50 (UACC-62) was > 100 µM (inactive) and the GI50 (UO-31) was > 100 µM (inactive). For the same compound, the GI50 (XF498) was > 100 µM (inactive).

In the case of `CC(C)C(=O)CC(c1ccc(Br)cc1)N1N=C(C(C)C)CC1c1ccc(Br)cc1` (stereo not drawn), the GI50 (A549) is reported as 96.8 µM (inactive), the GI50 (ACHN) is reported as > 100 µM (inactive) and the GI50 (CAKI-1) is reported as > 100 µM (inactive). For the same compound, the GI50 (CCRF-CEM) was 30.5 µM (inactive), the GI50 (COLO 205) was > 100 µM (inactive) and the GI50 (DMS-114) was 27.9 µM (inactive). For the same compound, the GI50 (DMS-273) was 38.1 µM (inactive), the GI50 (EKVX) was 44.9 µM (inactive) and the GI50 (HCC 2998) was 34.2 µM (inactive). For the same compound, the GI50 (HCT-116) was 29.4 µM (inactive), the GI50 (HCT-15) was 62.4 µM and the GI50 (HOP-18) was > 100 µM (inactive). For the same compound, the GI50 (HOP-62) was > 100 µM (inactive), the GI50 (HOP-92) was 31.4 µM (inactive) and the GI50 (HT-29) was 18.6 µM (inactive). The GI50 (K562) was 64.4 µM (inactive), the GI50 (KM-20L2) was 45.3 µM (inactive) and the GI50 (KM12) was > 100 µM (inactive). The GI50 (LOX IMVI) was 55.8 µM (inactive), the GI50 (LXFL 529) was > 100 µM (inactive) and the GI50 (M14) was 66.1 µM (inactive). The GI50 (M19-MEL) was 25.9 µM (inactive), the GI50 (MOLT-4) was 31.3 µM (inactive) and the GI50 (Malme-3M) was 31.4 µM (inactive). The GI50 (NCI-H226) was > 100 µM (inactive), the GI50 (NCI-H23) was > 100 µM (inactive) and the GI50 (NCI-H460) was 51.2 µM (inactive). The GI50 (NCI-H522) was 65.9 µM (inactive), the GI50 (OVCAR-3) was 70.8 µM (inactive) and the GI50 (OVCAR-4) was > 100 µM (inactive). The GI50 (OVCAR-5) was > 100 µM (inactive), the GI50 (OVCAR-8) was > 100 µM (inactive) and the GI50 (RXF 393) was 16.9 µM (inactive). For the same compound, the GI50 (SF-268) was > 100 µM (inactive), the GI50 (SF-539) was > 100 µM (inactive) and the GI50 (SK-MEL-28) was > 100 µM (inactive). The GI50 (SK-MEL-2) was 53.6 µM (inactive), the GI50 (SK-OV-3) was 34.5 µM (inactive) and the GI50 (SN12C) was > 100 µM (inactive). The GI50 (SNB-19) was 50.7 µM (inactive), the GI50 (SR) was 69 µM (inactive) and the GI50 (SW-620) was 93.3 µM (inactive). The GI50 (TK-10) was > 100 µM (inactive), the GI50 (U-251) was 48.8 µM (inactive) and the GI50 (UO-31) was 68.7 µM (inactive). The GI50 (XF498) was 21 µM (inactive).
